Test systems include BT-549; DMS-114; DMS-273; HOP-18; KM-20L2; LXFL 529; M19-MEL; XF498; RXF 631.
Test in all cases: NCI anticancer screen, dose series, 48 h

“And” between values parts separate entries of the source, which are not always exact repeats. Identical values can stand only once.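 96-well plates; 48 h exposure; 5 concentrations. Endpoints by linear interpolation between flanking doses. Not reached: highest tested concentration assigned. The concentration for 50% growth inhibition is given as GI50.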 The source made the active and inactive calls. No stated cut-off is given here; in the data, active = GI50 up to about 1.1 µM and inactive = higher.

For the compound `NCC1OC(n2cnc3c(=O)[nH]c(N)nc32)C(O)C1O` (stereo not given), the GI50 in the experiment with BT-549 was > 100 µM (inactive).
Same read-out and setting: next, `CC(O)c1cc2c(s1)C(=O)c1sccc1C2=O` (stereo not given): 0.0646 µM (active); `NC(=O)C1CCCNC1` (stereo not given): > 100 µM (inactive).
Same read-out and setting: next, `Cc1cc(C)nc(NC(=O)COc2ccc(Cl)cc2)c1`: > 100 µM (inactive); `N#Cc1c(N)n(C2OC(CO)C(O)C2O)c2ncnc(N)c12` (stereo not given): 0.152 µM (active); `N#CC12CNCC1CN=N2` (stereo not given): > 100 µM (inactive).
Regarding `O=C1c2c(c(-c3ccccc3)c(-c3ccccc3)c(-c3ccccc3)c2-c2ccccc2)C(=O)N1c1cccc(Br)c1`, the GI50 with DMS-114, with DMS-273, in the experiment on HOP-18, with KM-20L2, in the experiment with LXFL 529 and with M19-MEL was > 100 µM (inactive) in each case. Besides, in the experiment on XF498, the GI50 is > 100 µM (inactive).
Consider `COc1ccc(OC)c(/N=C/c2cc(OC)c(OC)c(OC)c2)c1`, for which, in the experiment with BT-549, the GI50 is > 78.9 µM (inactive).
Still for that read-out and setting: with `COc1ccc(C[C@@H]2CN(C(=O)c3ccccc3)[C@H](Cc3ccc(O)cc3)CN2C(=O)c2ccccc2)cc1Br` the figure was > 100 µM (inactive); with `COc1ccc(C/C=C(\C)CCO)cc1`, > 100 µM (inactive); with `COC(=O)CNC(=O)/C=C/[C@H](O[Si](C)(C)C(C)(C)C)[C@H](/C=C/C(=O)NCC(=O)OC)O[Si](C)(C)C(C)(C)C`, > 25 µM (inactive).
Still for that read-out and setting: with `COc1cc(C(c2cccc3ccccc23)N2C(=O)CCC2C(=O)O)cc(OC)c1OC` (stereo not given) the figure was > 100 µM (inactive).
Take `O=C(NC(=O)c1cn(CCNCCO)c(=O)[nH]c1=O)OCc1ccccc1`: the GI50 with DMS-114 was > 100 µM (inactive); with HOP-18 it was < 0.01 µM (active); in the experiment on LXFL 529, > 100 µM (inactive); in the experiment on M19-MEL, > 100 µM (inactive).
As to `CC(=O)Nc1ccc(-c2nnc(SCC(=O)Nc3ccc(Cl)cc3)o2)cc1`, the GI50 in the experiment with DMS-114 was 1.85 µM (inactive); in the experiment with DMS-273, 14.5 µM (inactive); with HOP-18 it was 15 µM (inactive); in the experiment on KM-20L2 it was 16.4 µM (inactive); with LXFL 529, 8.97 µM (inactive); in the experiment on M19-MEL, 11.7 µM (inactive).
Turning to `CC(=O)O[C@H]1CC[C@@]2(C)C(=CC[C@@H]3C2CC[C@]2(C)Nc4nc5ccccc5cc4CC32)C1` (stereo not given in full), the GI50 in the experiment with DMS-114 is 5.4 µM (inactive); in the experiment with DMS-273, 4.82 µM (inactive); in the experiment on HOP-18, 3.94 µM (inactive); in the experiment with KM-20L2, 1.77 µM (inactive); with LXFL 529, 3.38 µM (inactive); with M19-MEL, 3.59 µM (inactive). Also, the GI50 with XF498 is 5.89 µM (inactive).
For the compound `O=C(C/N=C(\CN(c1ccccc1)c1ccccc1)Oc1c(Cl)cc(Cl)cc1Cl)N1c2ccccc2Sc2ccccc21`, in the experiment with BT-549, the GI50 was 17.3 µM (inactive).
In the case of `CC1OC2OC3C(OCC(O)C3O)OC(=O)[C@]34CCC(C)(C)CC3C3=CCC5[C@@]6(C)C[C@H](O)[C@H](OC7OC(CO)C(O)C(O)C7OC7OC(COC(=O)CC(C)(O)CC(=O)OC1C(O)C2O)C(O)C(O)C7O)[C@@](C)(CO)C6CC[C@@]5(C)[C@]3(C)CC4` (stereo not given in full), in the experiment with BT-549, the GI50 is 1.5 µM (inactive).
The same measure, in the same setting: with `Cc1cc(C)nc(NS(=O)(=O)c2ccc(Nc3nncc(=O)n3N)cc2)n1` the figure was 18.4 µM (inactive).
Take `COc1c2c(c(OC)c3c(=O)cc(C/C(=N/NC(=O)C[n+]4ccccc4)C(=O)Nc4cc(C)ccc4C)oc13)OCO2`: the GI50 in the experiment on DMS-114, in the experiment with DMS-273, in the experiment on KM-20L2, in the experiment on LXFL 529 and in the experiment on M19-MEL was > 100 µM (inactive) in each case.
As for `CN(C)/N=C(/c1nc2ccc([N+](=O)[O-])cc2nc1O)C(O)c1ccco1` (stereo not given), the GI50 in the experiment on DMS-114 was 16.4 µM (inactive); with DMS-273 it was 91 µM (inactive); in the experiment with KM-20L2, 21 µM (inactive); in the experiment with LXFL 529, 58.1 µM (inactive); in the experiment with M19-MEL, > 100 µM (inactive); in the experiment on XF498, > 100 µM (inactive).
Regarding `O=C(CC(=O)N1N=C(N(c2ccccc2)c2ccccc2)CC1c1ccccc1)Nc1cccc(Cl)c1` (stereo not given), the GI50 in the experiment with BT-549 was > 100 µM (inactive).
`O=c1[nH]c2ccc(C(F)(F)F)cc2nc1C(F)(F)F`: the GI50 with BT-549 is 22.2 µM (inactive).
On the same count and under the same terms, next, `Cc1nc(-c2ccccc2)c(C)n2c1nc1ccccc12`: 23 µM (inactive); `CSc1c(CC(=O)O)n(Cc2ccccc2)c2ccccc12`: > 100 µM (inactive); `C[n+]1c2ccccc2c(N=[N+]=[N-])c2ccccc21`: > 10 µM (inactive).
Still for that read-out and setting: next, `C=C(CO)[C@H]1Oc2ccc(C(C)=O)cc2[C@@H]1O`: 33.2 µM (inactive).
Turning to `COc1cc(OC)c2c(c1)C(=O)C(CC(C)O)=CC2=O` (stereo not given), the GI50 was 3.08 µM (inactive) in the experiment on DMS-114; 16.6 µM (inactive) with DMS-273; 16.7 µM (inactive) in the experiment on HOP-18; 17.2 µM (inactive) with KM-20L2; 13.2 µM (inactive) in the experiment on LXFL 529; 3.42 µM (inactive) in the experiment with M19-MEL. In addition, the GI50 in the experiment on XF498 is 14 µM (inactive).
As to `COc1ccc2c(c1)N=C1CSC(c3cccc(Br)c3)N1C2` (stereo not given), the GI50 with BT-549 was 12.4 µM (inactive).
Still for that read-out and setting: with `C=C1C(=O)O[C@H]2C1C[C@@H](OC(C)=O)/C(C)=C/CC[C@@]1(C)O[C@H]21` (stereo not given in full) the figure was 5.92 µM (inactive).
Same read-out and setting: with `CC(=O)OC(/C=C/c1ccccc1)P1(=O)N(CC(C)(C)C)[C@@H]2CCCC[C@H]2N1CC(C)(C)C` (stereo not given in full) the figure was 11.5 µM (inactive) and 14.4 µM (inactive).
Turning to `Cc1nc2c(n1CCN(C)C)C(=O)c1ccccc1C2=O`, the GI50 with DMS-273 is 13.5 µM (inactive); in the experiment with KM-20L2, 6.31 µM (inactive); with LXFL 529, 17.9 µM (inactive); in the experiment on M19-MEL, 2.02 µM (inactive); in the experiment on XF498, 18.3 µM (inactive).
On to `COc1ccc(CCCCl)c(C2=NCCc3ccccc32)c1`, for which the GI50 with BT-549 is 33.3 µM (inactive).
On the same count and under the same terms, with `C(=N\C12CC3CC(CC(C3)C1)C2)/C1CCCCC1` the figure was > 100 µM (inactive); with `C=CCOC(=O)C[C@H](NC(=O)[C@H](Cc1ccc(O)cc1)NCC(F)(F)F)C(=O)OCC=C`, > 100 µM (inactive).
For `O=C1CSC2(CC(/C=C/c3ccccc3O)=NN2c2cccc(S(=O)(=O)O)c2)N1c1nc2ccccc2s1` (stereo not given), in the experiment on BT-549, the GI50 is 24.9 µM (inactive).
The same measure, in the same setting: with `O=C1/C(=C/c2cccc([N+](=O)[O-])c2)Sc2scc(-c3ccc([N+](=O)[O-])cc3)[n+]21` the figure was 11.6 µM (inactive).
On to `CC1CN(c2ccc(Cl)cc2)CC(C)OC(=O)O1` (stereo not given), for which the GI50 in the experiment on DMS-114, in the experiment with DMS-273, with KM-20L2, with LXFL 529, in the experiment on M19-MEL and in the experiment with XF498 was > 100 µM (inactive) throughout.
With `COC(=O)C1C(O)C(C)C(=O)C(C)/C=C\C=C(C)C(=O)Nc2c(C)c(OC(C)=O)c3c(c2O)C(=O)C(C)=C2OCOC(=C23)C(C)=CC(C)(O)C(O)C(C)C1O` (stereo not given), in the experiment on BT-549, the GI50 is 42 µM (inactive).
The same measure, in the same setting: next, `O=C1/C(=C/c2ccc(O)cc2)CCC1CNc1ccccc1` (stereo not given): 14.5 µM (inactive); `Cc1c(C#N)c(N)n(C2OCC(O)C(O)C2O)c(=S)c1C#N` (stereo not given): > 100 µM (inactive).
In the case of `CC(=O)OC1C[C@@H](C)C2(C[C@H](O)c3ccoc3)C(=O)OC[C@]13C2CCC(O)C31CO1` (stereo not given in full), the GI50 in the experiment with BT-549 was > 100 µM (inactive).
As to `CC(C)(C)NC(=O)C12C3C4C1C1C2C3C41C(=O)NC(C)(C)C` (stereo not given), in the experiment on BT-549, the GI50 is > 100 µM (inactive).
Regarding `CN1C(OCc2ccccc2)c2c(ccc3c2OCO3)C2C=Cc3cc4c(cc3C21)OCO4` (stereo not given), the GI50 with DMS-114 was 0.305 µM (active); in the experiment with HOP-18, 1.33 µM (inactive); with KM-20L2 it was 1.59 µM (inactive); with LXFL 529, 0.371 µM (active); in the experiment with M19-MEL, 0.19 µM (active); in the experiment with RXF 631 it was 0.841 µM (active).
As to `COC(=O)C1=C(O)C(C(=O)OC)[C@]2(O)[C@H](C(=O)OC)[C@H]1C[C@@H](c1ccc(O)cc1)[C@H]2C(=O)OC` (stereo not given in full), the GI50 with BT-549 was 26.2 µM (inactive).
Same read-out and setting: next, `O=C(O)Cc1ccc(Nc2nc3cc(C(F)(F)F)ccc3nc2C(=O)O)cc1`: > 100 µM (inactive).
Take `C/C(=C\c1ccccc1)C(O)S(=O)(=O)O` (stereo not given): the GI50 in the experiment with DMS-114, with DMS-273, with HOP-18, in the experiment on KM-20L2, in the experiment with LXFL 529 and with M19-MEL was > 100 µM (inactive) each time.
As to `CCCCCC(=O)N[C@H]1CCc2cc(OC)c(OC)c(OC)c2-c2ccc(SC)c(=O)cc21`, the GI50 is < 0.01 µM (active) in the experiment with DMS-114; 0.0154 µM (active) with KM-20L2; 0.0204 µM (active) with LXFL 529; 0.0229 µM (active) with M19-MEL; 0.0239 µM (active) with XF498.
Take `CC1=C(N2CC2)C(=O)c2nc3n(c2C1=O)CCC3OC(=O)CCl` (stereo not given): the GI50 with BT-549 is 0.0152 µM (active); in the experiment on DMS-114, 0.171 µM (active); in the experiment on DMS-273, 0.049 µM (active); in the experiment on HOP-18, 0.043 µM (active); in the experiment on KM-20L2, 0.131 µM (active); in the experiment with LXFL 529, 0.0776 µM (active). Besides, the GI50 is 0.0817 µM (active) in the experiment on M19-MEL and 0.0301 µM (active) in the experiment with XF498.
On to `COc1ccc2c(c1O)-c1c(OC)c(OC)cc3c1[C@H](C2)[N+](C)(C)CC3`, for which the GI50 in the experiment with BT-549 is > 100 µM (inactive).
`COc1cccc2c1C(=O)c1c(O)c3c(c(O)c1C2=O)C[C@@](O)(C(=O)CO)C[C@@H]3OC1CC(N)C(O)C(C)O1` (stereo not given in full): the GI50 was 438 nM (active) and 255 nM (active) in the experiment with BT-549; 0.0975 µM (active) in the experiment on DMS-114; 0.0883 µM (active) with DMS-273; 0.478 µM (active) in the experiment with HOP-18; 0.879 µM (active) in the experiment on KM-20L2; 0.2 µM (active) in the experiment on M19-MEL. In addition, the GI50 with RXF 631 is 0.912 µM (active).
For the compound `Nc1nc(O)c(Br)c(-c2cccc([N+](=O)[O-])c2)n1`, in the experiment with BT-549, the GI50 is 38.6 µM (inactive).
Still for that read-out and setting: next, `CC(=O)c1csc2c1C(=O)c1ccccc1C2=O`: 1.62 µM (inactive).
As for `CO[C@H]1Nc2c(ccc(C)c2O)C(=O)N2C=C(/C=C/C(N)=O)C[C@@H]12` [ANTHRAMYCIN METHYL ETHER], the GI50 is 0.0143 µM (active) in the experiment on BT-549; 0.0213 µM (active) in the experiment on DMS-114; 0.0295 µM (active) in the experiment with DMS-273; 0.444 µM (active) in the experiment with HOP-18; 0.184 µM (active) with KM-20L2; 0.0269 µM (active) in the experiment with M19-MEL. Besides, the GI50 in the experiment with XF498 was < 0.01 µM (active).

These data come from ChEMBL document CHEMBL1201862, “PubChem BioAssay data set” (2004).
